Source: PubChem BioAssay AID1963447 (Molecular Pharmacology Branch, DTP, NCI, 2024)
Values belong to the compound of their own block, whether it stands above or below them.

Test system: 885512-296-R-J2-PDC complex spheroid growth, % test/control
Test: Anticancer human tumor 885512-296-R-J2-PDC patient-derived breast carcinoma cell line growth inhibition [Asc]
Conditions: for IC50: curve of first compound; for viability, T/C: stronger effect = lower value
Procedure, shortened: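 Concentration series start at each agent's clinical Cmax, or at 10 microM when none is established, and drop in half-log steps; agents are applied alone or together to complex spheroids built with HUVEC and hMSC.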
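Further: spheroids exposed to compounds for seven days.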
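Wherever viability, T/C is given: 100% = DMSO vehicle control wells.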

- IC50 (second compound 0.03 µM): 0.361 µM
- IC50 (second compound 0.0949 µM): 0.134 µM
- IC50 (second compound 0.3 µM): 0.165 µM
- IC50 (second compound 0.949 µM): 0.0598 µM
- IC50 (second compound 3 µM): < 0.00949 µM
Structure (SMILES): Cc1nc(N2CCC3(CC2)COC(C)C3N)c(CO)nc1Sc1ccnc(N)c1Cl (stereo not given) + CCN1C(C(=O)NC23CCC(C(=O)O)(CC2)CC3)C(c2cccc(Cl)c2F)C2(C(=O)Nc3cc(Cl)ccc32)C12CCCCC2
- viability, T/C (second compound 0.03 µM, first compound 0.00949 µM): 90.6%
- viability, T/C (second compound 0.03 µM, first compound 0.03 µM): 79%
- viability, T/C (second compound 0.03 µM, first compound 0.0949 µM): 59.8%
- viability, T/C (second compound 0.03 µM, first compound 0.3 µM): 51.6%
- viability, T/C (second compound 0.03 µM, first compound 0.949 µM): 45.2%
- viability, T/C (second compound 0.03 µM, first compound 3 µM): 35.4%
- viability, T/C (second compound 0.0949 µM, first compound 0.00949 µM): 96.5%
- viability, T/C (second compound 0.0949 µM, first compound 0.03 µM): 78.9%
- viability, T/C (second compound 0.0949 µM, first compound 0.0949 µM): 51.2%
- viability, T/C (second compound 0.0949 µM, first compound 0.3 µM): 45.4%
- viability, T/C (second compound 0.0949 µM, first compound 0.949 µM): 41.3%
- viability, T/C (second compound 0.0949 µM, first compound 3 µM): 35.5%
- viability, T/C (second compound 0.3 µM, first compound 0.00949 µM): 82.3%
- viability, T/C (second compound 0.3 µM, first compound 0.03 µM): 60.2%
- viability, T/C (second compound 0.3 µM, first compound 0.0949 µM): 51.6%
- viability, T/C (second compound 0.3 µM, first compound 0.3 µM): 53.1%
- viability, T/C (second compound 0.3 µM, first compound 0.949 µM): 42.8%
- viability, T/C (second compound 0.3 µM, first compound 3 µM): 36.9%
- viability, T/C (second compound 0.949 µM, first compound 0.00949 µM): 59.3%
- viability, T/C (second compound 0.949 µM, first compound 0.03 µM): 51.1%
- viability, T/C (second compound 0.949 µM, first compound 0.0949 µM): 46.9%
- viability, T/C (second compound 0.949 µM, first compound 0.3 µM): 46.2%
- viability, T/C (second compound 0.949 µM, first compound 0.949 µM): 39.1%
- viability, T/C (second compound 0.949 µM, first compound 3 µM): 35.2%
- viability, T/C (second compound 3 µM, first compound 0.00949 µM): 39.3%
- viability, T/C (second compound 3 µM, first compound 0.03 µM): 35%
- viability, T/C (second compound 3 µM, first compound 0.0949 µM): 28.1%
- viability, T/C (second compound 3 µM, first compound 0.3 µM): 32%
- viability, T/C (second compound 3 µM, first compound 0.949 µM): 30.3%
- viability, T/C (second compound 3 µM, first compound 3 µM): 27.1%

- IC50 (second compound 0.01 µM): 4.11 µM
- IC50 (second compound 0.0316 µM): 2.96 µM
- IC50 (second compound 0.1 µM): 3.93 µM
- IC50 (second compound 0.316 µM): 3.85 µM
- IC50 (second compound 1 µM): 3.63 µM
Structure (SMILES): O=C(c1cc(Cc2n[nH]c(=O)c3ccccc23)ccc1F)N1CCN(C(=O)C2CC2)CC1 + CNC(C)C(=O)NC1CN(S(=O)(=O)c2cccc(S(=O)(=O)N3CCC4CCC(C(=O)NC(c5ccccc5)c5ccccc5)N4C(=O)C(NC(=O)C(C)NC)C3)c2)CCC2CCC(C(=O)NC(c3ccccc3)c3ccccc3)N2C1=O
- viability, T/C (second compound 0.01 µM, first compound 0.0316 µM): 95.6%
- viability, T/C (second compound 0.01 µM, first compound 0.1 µM): 96.4%
- viability, T/C (second compound 0.01 µM, first compound 0.316 µM): 95.6%
- viability, T/C (second compound 0.01 µM, first compound 1 µM): 94.5%
- viability, T/C (second compound 0.01 µM, first compound 3.16 µM): 60.7%
- viability, T/C (second compound 0.01 µM, first compound 10 µM): 13.5%
- viability, T/C (second compound 0.0316 µM, first compound 0.0316 µM): 97.1%
- viability, T/C (second compound 0.0316 µM, first compound 0.1 µM): 101%
- viability, T/C (second compound 0.0316 µM, first compound 0.316 µM): 99.6%
- viability, T/C (second compound 0.0316 µM, first compound 1 µM): 84%
- viability, T/C (second compound 0.0316 µM, first compound 3.16 µM): 48.2%
- viability, T/C (second compound 0.0316 µM, first compound 10 µM): 14.4%
- viability, T/C (second compound 0.1 µM, first compound 0.0316 µM): 97.9%
- viability, T/C (second compound 0.1 µM, first compound 0.1 µM): 98.2%
- viability, T/C (second compound 0.1 µM, first compound 0.316 µM): 106%
- viability, T/C (second compound 0.1 µM, first compound 1 µM): 86.2%
- viability, T/C (second compound 0.1 µM, first compound 3.16 µM): 59.8%
- viability, T/C (second compound 0.1 µM, first compound 10 µM): 10.6%
- viability, T/C (second compound 0.316 µM, first compound 0.0316 µM): 101%
- viability, T/C (second compound 0.316 µM, first compound 0.1 µM): 106%
- viability, T/C (second compound 0.316 µM, first compound 0.316 µM): 102%
- viability, T/C (second compound 0.316 µM, first compound 1 µM): 89.3%
- viability, T/C (second compound 0.316 µM, first compound 3.16 µM): 58.1%
- viability, T/C (second compound 0.316 µM, first compound 10 µM): 12%
- viability, T/C (second compound 1 µM, first compound 0.0316 µM): 96.1%
- viability, T/C (second compound 1 µM, first compound 0.1 µM): 97.8%
- viability, T/C (second compound 1 µM, first compound 0.316 µM): 95.4%
- viability, T/C (second compound 1 µM, first compound 1 µM): 87.2%
- viability, T/C (second compound 1 µM, first compound 3.16 µM): 55%
- viability, T/C (second compound 1 µM, first compound 10 µM): 13.1%
